Values of other authors in article PMC9576820 (The Journal of membrane biology, 2022).

Test system: host cells, proteases, serum proteins

RRGWALRLVLAY [ARVA]
inhibition of antimicrobial activity by host factors: potently inhibited by host cell binding, proteolysis, and serum protein binding
